Measured values taken from ChEMBL document CHEMBL2062468, “Identification of first proadrenomedullin N-terminal 20 peptide (PAMP) modulator by means of virtual screening and NMR interaction experiments” (Eur J Med Chem, 2012).
The source made the active and inactive calls. No cut-off for these calls is given here.

System: Mus musculus
Assay: Induction of angiogenesis in mouse athymic nude mouse implanted with matrigel containing compound at 1 uM measured after 11 days by direct in vivo angiogenesis assay
Type: functional, organism-based

| SMILES | Activity |
| --- | --- |
| CN1C(=O)C2N=C(C3CC(=O)CC(c4nc5c(=O)n(C)c(=O)n(C)c5[nH]4)N3)NC2N(C)C1=O (stereo unspecified) | Active |

Molecular target: T1, Pro-adrenomedullin (Homo sapiens) (UniProt P35318)
T1 sequence (whole entry): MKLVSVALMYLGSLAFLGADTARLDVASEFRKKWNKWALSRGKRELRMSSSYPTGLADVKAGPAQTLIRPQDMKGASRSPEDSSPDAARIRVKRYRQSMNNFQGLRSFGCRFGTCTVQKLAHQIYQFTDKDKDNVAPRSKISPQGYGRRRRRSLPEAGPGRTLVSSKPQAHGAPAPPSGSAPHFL
Assay: Binding affinity to human proadrenomedullin N-terminal 20 peptide assessed as fragmentation of PAMP protein at 500 uM by MS analysis

| SMILES | Activity |
| --- | --- |
| O=S(=O)(O)c1ccc2cc(/N=N/c3cc(S(=O)(=O)O)c4cccnc4c3O)ccc2c1 | Active |

Molecular target: T1, Pro-adrenomedullin (Homo sapiens)
Assay: Binding affinity to human synthetic proadrenomedullin N-terminal 20 peptide assessed as reduction in absorbance at 1 uM after 1 hr by monoclonal antibody method
Set-up: scale not given: the % may be the effect or the level left

| SMILES | Activity [%] |
| --- | --- |
| O=S(=O)(O)c1ccc2cc(/N=N/c3cc(S(=O)(=O)O)c4cccnc4c3O)ccc2c1 | 86.4 |
| FC(F)(F)c1nc2ccc(SSc3ccc4nc(C(F)(F)F)[nH]c4c3)cc2[nH]1 | 109 |
| O=C1C(Cl)=C(Sc2nnc3c4ccccc4c4ccccc4c3n2)C(=O)c2ccccc21 | 88.4 |
| O=C1C2C3C=CC(C2C(=O)N1CN1CCSCC1)C1C2C(=O)N(CN4CCSCC4)C(=O)C2C31 (stereo unspecified) | 92.5 |
| O=[N+]([O-])c1ccc2c(c1)N=C1OC(c3c[nH]c4ccc(COc5ccccc5)cc34)C(O)=C1N2 (stereo unspecified) | 92.7 |
| O=C1c2ccccc2C(=O)c2c(NC3CCCCC3)ccc(Nc3ccc(S(=O)(=O)O)cc3)c21 | 101 |
| S=C(Nc1ccc2c(c1)Cc1ccccc1-2)Nc1ccc2c(c1)Cc1ccccc1-2 | 80.8 |
| O=S(=O)(O)c1ccc(-c2nnc(-c3ccccn3)nc2-c2ccc(S(=O)(=O)O)o2)o1 | 81.9 |
| Nc1ncnc2nc(-c3ccc(C[PH](c4ccccc4)(c4ccccc4)c4ccccc4)cc3)[nH]c12 | 76 |
| C[C@]12CC[C@@H]3c4ccc(O)cc4CC[C@H]3[C@@H]1CC[C@@H]2OC(=O)CCC1CCCC1 | 91.2 |
| CC1(C)CC(Nc2ccc(Nc3ccccc3)cc2)CC(C)(C)N1 | 96.2 |
| Nc1nc(SCc2ccccc2)c2ncn(Cc3ccccc3)c2n1 | 91.4 |
| c1ccc([PH](CC[PH](c2ccccc2)(c2ccccc2)c2ccccc2)(c2ccccc2)c2ccccc2)cc1 | 84.6 |
| OC[C@H]1O[C@@H](n2cnc3c(SCc4ccccc4)ncnc32)[C@H](O)[C@@H]1O | 109 |
| CC1c2ccccc2Cn2cc3c(c21)C(=O)c1cccc(OP(=O)(O)OCc2ccccc2)c1C3=O (stereo unspecified) | 107 |
| S=C1NCN2CCN(CC2)CNC(=S)C(=S)NCN2CCN(CC2)CNC1=S | 88 |

| SMILES | Activity [%] |
| --- | --- |
| Nc1nc(-c2ccccc2)c(-c2ccccc2)c(-c2nc(N)nc(-c3ccccc3)c2-c2ccccc2)n1 | 109 |
| O=C(O)c1c(-c2nccc3ccccc23)[nH]c(-c2ccccc2)c1S(=O)(=O)O | 96.7 |
| O=C(O)CNC(=O)C1NC(C(F)(F)F)(C(F)(F)F)OC1(C(F)(F)F)C(F)(F)F (stereo unspecified) | 92.1 |
| Cc1ccc(-c2nc(-c3nccc4ccccc34)oc2-c2ccccc2)cc1 | 72.1 |
| C(CCc1nnc2c(n1)CCCC2)Cc1nnc2c(n1)CCCC2 | 96.5 |
| O=c1[nH]c2ccccc2n1CCCN1CCC(n2c(=O)[nH]c3cc(Cl)ccc32)CC1 | 80.1 |
| Cc1ccc2ccccc2c1CSc1nc(N)nc2c1ncn2CC(C)C | 85.5 |
| Cn1cnc([N+](=O)[O-])c1Sc1nc(N)nc2c1ncn2[C@H]1C[C@H](O)[C@@H](CO)O1 | 86.3 |
| c1ccc2c(CN3CCN(Cc4c[nH]c5ccccc45)CC3)c[nH]c2c1 | 89.7 |
| C[C@]12CC[C@@H]3c4ccc(O)cc4CC[C@H]3[C@@H]1CC[C@@H]2OC(=O)CCc1ccccc1 | 98.4 |
| CC(C)CCC[C@@H](C)[C@H]1CC[C@H]2[C@@H]3CCC4CC(N)CC[C@]4(C)[C@H]3CC[C@]12C (stereo partly specified) | 106 |
| CN1C(=O)C2N=C(C3CC(=O)CC(c4nc5c(=O)n(C)c(=O)n(C)c5[nH]4)N3)NC2N(C)C1=O (stereo unspecified) | 85.1 |
| Nc1nc(-c2ccc3ccccc3c2)cc(-c2cc(-c3ccc4ccccc4c3)nc(N)n2)n1 | 104 |
| Cn1c(=O)c2c(ncn2CN2CCN(Cn3cnc4c3c(=O)n(C)c(=O)n4C)CC2)n(C)c1=O | 76.4 |
| Clc1ccc2c(N3CCC(CCC4CCN(c5ncnc6cc(Cl)ccc56)CC4)CC3)ncnc2c1 | 88 |
| c1cc(NNc2cccc(-c3nnn[nH]3)c2)cc(-c2nnn[nH]2)c1 | 95.3 |

Molecular target: T1, Pro-adrenomedullin (Homo sapiens)
Assay: Binding affinity to human proadrenomedullin N-terminal 20 peptide at 500 uM by NMR spectroscopy

| SMILES | Activity |
| --- | --- |
| O=S(=O)(O)c1ccc2cc(/N=N/c3cc(S(=O)(=O)O)c4cccnc4c3O)ccc2c1 | Active |
| CN1C(=O)C2N=C(C3CC(=O)CC(c4nc5c(=O)n(C)c(=O)n(C)c5[nH]4)N3)NC2N(C)C1=O (stereo unspecified) | Active |
